Target: recombinant human SAE enzyme (Homo sapiens (Human), UniProt Q9UBT2)
Assay: SAE HTRF enzyme assay
Type: biochemical
Details: for inhibition at 0.111 µM: read-out: Percent Inhibition
Protocol: Example 215: SAE HTRF enzyme assay
The SAE enzymatic reaction totals 50 μl and contains 50 mM HEPES Hemisodium (pH 7.5), 0.05% BSA, 5 mM MgCl2, 0.5 μM ATP, 250 μM GSH, 0.01 μM Ubc9-GST, 0.125 μM Sumo-Flag and 0.11 nM recombinant human SAE enzyme. The enzymatic reaction mixture, with and without inhibitor, Is incubated at 24° C. for 105 min in a 384-well plate before termination with […] of Stop/Detection buffer (0.1M HEPES Hemisodium pH 7.5, 0.05% Tween20, 20 mM EDTA, 410 mM KF, 0.53 nM Europium-Cryptate labeled monoclonal anti-Flag M2 Antibody (CisBio International) and 8.125 μg/ml PHYCOLINK goat anti-GST allophycocyanin (XL-APC) antibody (Prozyme)). After incubation for 2 hours at 24° C., quantification of FRET is performed on the Pherostar™ (BMG Labtech). Percentage inhibition values at a single concentration or enzyme inhibition (IC50) values are determined from those curves. One skilled in the art will appreciate that the values generated either as percentage inhibition at a single concentration or IC50 values are subject to experimental variation.

[1] = SAE inhibition at compound concentration 0.111 μM
[2] = SAE inhibition, class symbols, legend in nM

Sequence of recombinant human SAE enzyme (Q9UBT2 whole entry): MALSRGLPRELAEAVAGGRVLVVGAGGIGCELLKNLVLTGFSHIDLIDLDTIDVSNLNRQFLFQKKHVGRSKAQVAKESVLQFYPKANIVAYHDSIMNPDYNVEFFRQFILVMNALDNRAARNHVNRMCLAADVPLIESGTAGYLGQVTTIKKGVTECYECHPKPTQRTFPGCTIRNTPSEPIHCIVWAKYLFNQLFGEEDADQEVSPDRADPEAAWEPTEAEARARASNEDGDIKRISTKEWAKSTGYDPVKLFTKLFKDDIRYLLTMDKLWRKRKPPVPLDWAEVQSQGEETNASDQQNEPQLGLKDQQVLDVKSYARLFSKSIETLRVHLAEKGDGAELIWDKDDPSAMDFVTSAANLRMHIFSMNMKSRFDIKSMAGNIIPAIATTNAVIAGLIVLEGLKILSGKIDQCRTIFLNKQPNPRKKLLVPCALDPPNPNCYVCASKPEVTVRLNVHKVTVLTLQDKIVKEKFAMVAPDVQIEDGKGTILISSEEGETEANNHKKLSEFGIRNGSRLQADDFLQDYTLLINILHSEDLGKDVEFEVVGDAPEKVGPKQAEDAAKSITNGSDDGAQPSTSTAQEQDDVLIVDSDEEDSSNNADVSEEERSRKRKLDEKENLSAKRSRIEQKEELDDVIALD
Sequence of recombinant human SAE enzyme (Q9UBE0 whole entry partner): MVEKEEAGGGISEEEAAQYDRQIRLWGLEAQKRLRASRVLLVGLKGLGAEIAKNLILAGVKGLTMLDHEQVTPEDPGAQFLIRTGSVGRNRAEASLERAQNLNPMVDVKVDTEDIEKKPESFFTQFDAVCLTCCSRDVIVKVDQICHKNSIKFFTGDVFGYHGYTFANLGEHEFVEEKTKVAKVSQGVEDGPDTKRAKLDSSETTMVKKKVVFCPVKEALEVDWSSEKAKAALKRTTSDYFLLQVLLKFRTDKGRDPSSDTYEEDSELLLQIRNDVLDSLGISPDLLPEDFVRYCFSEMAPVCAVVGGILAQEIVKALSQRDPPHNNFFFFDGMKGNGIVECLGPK

Row | Structure (SMILES) | Percent Inhibition (Concentration 0.111 μM) | IC50 (class symbols A/B/C) | Percent Inhibition [1] | IC50 [2] | inhibition at 0.111 µM (Concentration 0.111 μM)
1 | NS(=O)(=O)OCC1CC(Nc2ncncc2C(=O)c2cc(C(O)c3cccc(Cl)c3)c(CO)s2)CC1O (mixture of isomers) [I-13, [(1R,2S,4R)-4-{[5-({4-[(R)-(3-chlorophenyl)(hydroxy)methyl]-5-(hydroxymethyl)-2-thienyl}carbonyl)pyrimidin-4-yl]amino}-2-hydroxycyclopentyl]methyl sulfamate and [(1R,2S,4R)-4-{[5-({4-[(S)-(3-chlorophenyl)(hydroxy)methyl]-5-(hydroxymethyl)-2-thienyl}carbonyl)pyrimidin-4-yl]amino}-2-hydroxycyclopentyl]methyl sulfamate] | 100 | < 10 nM |  |  | 
2 | Cc1sc(C(=O)c2cncnc2N[C@@H]2C[C@H](COS(N)(=O)=O)[C@@H](O)C2)cc1C1OCCc2ccc(C(F)(F)F)nc21 (single isomer, unassigned) [I-297b, [(1R,2S,4R)-2-hydroxy-4-{[5-({5-methyl-4-[(8S)-2-(trifluoromethyl)-5,8-dihydro-6H-pyrano[3,4-b]pyridin-8-yl]-2-thienyl}carbonyl)pyrimidin-4-yl]amino}cyclopentyl]methyl sulfamate or [(1R,2S,4R)-2-hydroxy-4-{[5-({5-methyl-4-[(8R)-2-(trifluoromethyl)-5,8-dihydro-6H-pyrano[3,4-b]pyridin-8-yl]-2-thienyl}carbonyl)pyrimidin-4-yl]amino}cyclopentyl]methyl sulfamate] |  |  | 99% | < 10 nM | 
3 | N[C@H](c1cccc(Cl)c1)c1cc(C(=O)c2cncnc2N[C@@H]2C[C@H](COS(N)(=O)=O)[C@@H](O)C2)sc1Cl (single isomer, unassigned) [I-15b, [(1R,2S,4R)-4-{[5-({4-[(R)-amino(3-chlorophenyl)methyl]-5-chloro-2-thienyl}carbonyl)pyrimidin-4-yl]amino}-2-hydroxycyclopentyl]methyl sulfamate or [(1R,2S,4R)-4-{[5-({4-[(S)-amino(3-chlorophenyl)methyl]-5-chloro-2-thienyl}carbonyl)pyrimidin-4-yl]amino}-2-hydroxycyclopentyl]methyl sulfamate] | 100 | < 10 nM |  |  | 
4 | Cc1cnn(Cc2cc(C(=O)c3cncnc3N[C@@H]3C[C@H](COS(N)(=O)=O)[C@@H](O)C3)sc2C)c1 [I-78, [(1R,2S,4R)-2-hydroxy-4-{[5-({5-methyl-4-[(4-methyl-1H-pyrazol-1-yl)methyl]-2-thienyl}carbonyl)pyrimidin-4-yl]amino}cyclopentyl]methyl sulfamate] |  |  |  |  | 98%
5 | CN1CCc2ccc(Cl)cc2[C@@H]1c1csc(C(=O)c2cncnc2N[C@@H]2C[C@H](COS(N)(=O)=O)[C@@H](O)C2)c1 (single isomer, unassigned) [I-307b, [(1R,2S,4R)-4-{[5-({4-[(1R)-7-chloro-2-methyl-1,2,3,4-tetrahydroisoquinolin-1-yl]-2-thienyl}carbonyl)pyrimidin-4-yl]amino}-2-hydroxycyclopentyl]methyl sulfamate or [(1R,2S,4R)-4-{[5-({4-[(1S)-7-chloro-2-methyl-1,2,3,4-tetrahydroisoquinolin-1-yl]-2-thienyl}carbonyl)pyrimidin-4-yl]amino}-2-hydroxycyclopentyl]methyl sulfamate] |  |  | 97% | < 10 nM | 
6 | Cc1nc2n(c1C)CCO[C@@H]2c1cc(C(=O)c2cncnc2N[C@@H]2C[C@H](COS(N)(=O)=O)[C@@H](O)C2)sc1C (single isomer, unassigned) [I-356b, [(1R,2S,4R)-4-{[5-({4-[(8R)-2,3-dimethyl-5,6-dihydro-8H-imidazo[2,1-c][1,4]oxazin-8-yl]-5-methyl-2-thienyl}carbonyl)pyrimidin-4-yl]amino}-2-hydroxycyclopentyl]methyl sulfamate or [(1R,2S,4R)-4-{[5-({4-[(8S)-2,3-dimethyl-5,6-dihydro-8H-imidazo[2,1-c][1,4]oxazin-8-yl]-5-methyl-2-thienyl}carbonyl)pyrimidin-4-yl]amino}-2-hydroxycyclopentyl]methyl sulfamate] |  |  | 99% | < 10 nM | 
7 | CO[C@@H](c1cccc(Br)c1)c1csc(C(=O)c2cncnc2N[C@@H]2C[C@H](COS(N)(=O)=O)[C@@H](O)C2)c1 (single isomer, unassigned) [I-73b, [(1R,2S,4R)-4-{[5-({4-[(S)-(3-Bromophenyl)(methoxy)methyl-2-thienyl}carbonyl)pyrimidin-4-yl]amino}-2-hydroxycyclopentyl]methyl sulfamate or [(1R,2S,4R)-4-{[5-(4-[(R)-(3-Bromophenyl)(methoxy)methyl]-2-thienyl)carbonyl)pyrimidin-4-yl]amino}-2-hydroxycyclopentyl]methyl sulfamate] | 98 | < 10 nM |  |  | 
8 | NS(=O)(=O)OC[C@H]1C[C@@H](Nc2ncncc2C(=O)c2cc([C@@H]3NCCc4ccc(Cl)cc43)cs2)C[C@@H]1O (mixture of isomers) [I-274, [(1R,2S,4R)-4-{[5-({4-[(1R)-7-chloro-1,2,3,4-tetrahydroisoquinolin-1-yl]-2-thienyl}carbonyl)pyrimidin-4-yl]amino}-2-hydroxycyclopentyl]methyl sulfamate and [(1R,2S,4R)-4-{[5-({4-[(1S)-7-chloro-1,2,3,4-tetrahydroisoquinolin-1-yl]-2-thienyl}carbonyl)pyrimidin-4-yl]amino}-2-hydroxycyclopentyl]methyl sulfamate] | 100 | < 10 nM |  |  | 
9 | NS(=O)(=O)OC[C@H]1C[C@@H](Nc2ncncc2C(=O)c2cc([C@@H](O)c3cccc(Cl)c3)co2)C[C@@H]1O.NS(=O)(=O)OC[C@H]1C[C@@H](Nc2ncncc2C(=O)c2cc([C@H](O)c3cccc(Cl)c3)co2)C[C@@H]1O (mixture of isomers) [I-42, {(1R,2S,4R)-4-[(5-{4-[(R)-(3-chlorophenyl)(hydroxy)methyl]-2-furoyl}pyrimidin-4-yl)amino]-2-hydroxycyclopentyl}methyl sulfamate and {(1R,2S,4R)-4-[(5-{4-[(S)-(3-chlorophenyl)(hydroxy)methyl]-2-furoyl}pyrimidin-4-yl)amino]-2-hydroxycyclopentyl}methyl sulfamate] | 98 | < 10 nM |  |  | 
10 | C[C@](N)(c1cccc(Cl)c1)c1csc(C(=O)c2cncnc2N[C@@H]2C[C@H](COS(N)(=O)=O)[C@@H](O)C2)c1 (single isomer, unassigned) [I-12a, [(1R,2S,4R)-4-{[5-({4-[(1S)-1-amino-1-(3-chlorophenyl)ethyl]-2-thienyl}carbonyl)pyrimidin-4-yl]amino}-2-hydroxycyclopentyl]methyl sulfamate or [(1R,2S,4R)-4-{[5-({4-[(1R)-1-amino-1-(3-chlorophenyl)ethyl]-2-thienyl}carbonyl)pyrimidin-4-yl]amino}-2-hydroxycyclopentyl]methyl sulfamate] | 84 | 10 to 100 nM |  |  | 
11 | Cc1sc(C(=O)c2cncnc2N[C@@H]2C[C@H](COS(N)(=O)=O)[C@@H](O)C2)cc1[C@H]1OCOc2ccccc21 (mixture of isomers) [I-280, [(1R,2S,4R)-4-{[5-({4-[(4R)-4H-1,3-benzodioxin-4-yl]-5-methyl-2-thienyl}carbonyl)pyrimidin-4-yl]amino}-2-hydroxycyclopentyl]methyl sulfamate and [(1R,2S,4R)-4-{[5-({4-[(4S)-4H-1,3-benzodioxin-4-yl]-5-methyl-2-thienyl}carbonyl)pyrimidin-4-yl]amino}-2-hydroxycyclopentyl]methyl sulfamate] |  |  | 98% | < 10 nM | 
12 | NS(=O)(=O)OC[C@H]1C[C@@H](Nc2ncncc2C(=O)c2cc(Cc3cccc(I)c3)cs2)[C@@H](F)[C@@H]1O [I-99, {(1R,2R,3R,4R)-3-fluoro-2-hydroxy-4-[(5-{[4-(3-iodobenzyl)-2-thienyl]carbonyl}pyrimidin-4-yl)amino]cyclopentyl}methyl sulfamate] |  | < 10 nM |  |  | 97%
13 | NS(=O)(=O)OC[C@H]1C[C@@H](Nc2ncncc2C(=O)c2cc([C@@H]3OCCc4ccc(Cl)nc43)c(Cl)s2)C[C@@H]1O (single isomer, unassigned) [I-276b, [(1R,2S,4R)-4-{[5-({5-chloro-4-[(8S)-2-chloro-5,8-dihydro-6H-pyrano[3,4-b]pyridin-8-yl]-2-thienyl}carbonyl)pyrimidin-4-yl]amino}-2-hydroxycyclopentyl]methyl sulfamate or [(1R,2S,4R)-4-{[5-({5-chloro-4-[(8R)-2-chloro-5,8-dihydro-6H-pyrano[3,4-b]pyridin-8-yl]-2-thienyl}carbonyl)pyrimidin-4-yl]amino}-2-hydroxycyclopentyl]methyl sulfamate] | 101 | < 10 nM |  |  | 
14 | Cc1cccc(Cc2cc(C(=O)c3cncnc3N[C@@H]3C[C@H](COS(N)(=O)=O)[C@@H](O)[C@@H]3F)oc2C)c1 [I-65, [(1R,2R,3R,4R)-3-fluoro-2-hydroxy-4-({5-[5-methyl-4-(3-methylbenzyl)-2-furoyl]pyrimidin-4-yl}amino)cyclopentyl]methyl sulfamate] |  | < 10 nM |  |  | 99%
